In brackets after ≈: the same amount, converted by molar mass.
Tests used:
Experiment in all cases: MIC, microdilution broth method (NCCLS)
Format in all cases: cell-based
Conditions in all cases: 35° C., 16-20 hours
[1] = test system: E. coli OC2605
Outline: (§1)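 Broth microdilution per NCCLS M7-A4; cation-adjusted Mueller-Hinton broth, 2-fold serial dilutions; inoculum ~5×10^4 CFU/well from turbidity-adjusted log-phase culture; 35° C., 16-20 h; growth scored vs no-compound control.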

[2] = test system: E. faecalis ATCC29212
Outline: as §1

[3] = test system: H. influenzae ATCC49247
Outline: as §1

[4] = test system: S. aureus ATCC29213
Outline: as §1

[5] = test system: S. pneumoniae ATCC49619
Outline: as §1

Compound | MIC (A: E. coli OC2605) [1] | MIC (C: E. faecalis ATCC29212) [2] | MIC (E: H. influenzae ATCC49247) [3] | MIC (B: S. aureus ATCC29213) [4] | MIC (D: S. pneumoniae ATCC49619) [5]
CCC1OC(=O)C(C)C(=O)C(C)C(OC2OC(C)CC(N(C)C)C2O)C(C)(OC(=O)OCC=Cc2ccc(-c3ncccn3)cc2)CC(C)C(=O)C(C)C2NC(=O)OC12C (stereo not shown) [Compound 7] | 8 mg/L (≈ 9.56 µM) | 0.06 mg/L (≈ 0.0717 µM) | 2 mg/L (≈ 2.39 µM) | 0.12 mg/L (≈ 0.143 µM) | 0.03 mg/L (≈ 0.0358 µM)
CCC1OC(=O)C(C)C(=O)C(C)C(OC2OC(C)CC(N(C)C)C2O)C(C)(OC(=O)OCC=Cc2ccc(-c3cccnn3)cc2)CC(C)C(=O)C(C)C2NC(=O)OC12C (stereo not shown) [Compound 20] | 8 mg/L (≈ 9.56 µM) | 0.06 mg/L (≈ 0.0717 µM) | 2 mg/L (≈ 2.39 µM) | 0.12 mg/L (≈ 0.143 µM) | 0.03 mg/L (≈ 0.0358 µM)
CCC1OC(=O)C(C)C(=O)C(C)C(OC2OC(C)CC(N(C)C)C2O)C(C)(OC(=O)OCc2ccc(-c3ncccn3)cc2)CC(C)C(=O)C(C)C2NC(=O)OC12C (stereo not shown) [Compound 77] | 8 mg/L (≈ 9.87 µM) | 0.06 mg/L (≈ 0.074 µM) | 2 mg/L (≈ 2.47 µM) | 0.12 mg/L (≈ 0.148 µM) | 0.03 mg/L (≈ 0.037 µM)
CCC1OC(=O)C(C)C(=O)C(C)C(OC2OC(C)CC(N(C)C)C2O)C(C)(OC(=O)OCC#Cc2ccc(-c3ncccn3)cc2)CC(C)C(=O)C(C)C2NC(=O)OC12C (stereo not shown) [Compound 80] | 16 mg/L (≈ 19.2 µM) | 0.12 mg/L (≈ 0.144 µM) | 2 mg/L (≈ 2.4 µM) | 0.25 mg/L (≈ 0.299 µM) | 0.03 mg/L (≈ 0.0359 µM)
CCC1OC(=O)C(C)C(=O)C(C)C(OC2OC(C)CC(N(C)C)C2O)C(C)(OC(=O)OCC#Cc2ccc(-c3cnccn3)cc2)CC(C)C(=O)C(C)C2NC(=O)OC12C (stereo not shown) [Compound 86] | 8 mg/L (≈ 9.58 µM) | 0.06 mg/L (≈ 0.0719 µM) | 2 mg/L (≈ 2.4 µM) | 0.12 mg/L (≈ 0.144 µM) | 0.03 mg/L (≈ 0.0359 µM)
CCC1OC(=O)C(C)C(=O)C(C)C(OC2OC(C)CC(N(C)C)C2O)C(C)(OC(=O)OCC#Cc2ccc(-c3cccnn3)cc2)CC(C)C(=O)C(C)C2NC(=O)OC12C (stereo not shown) [Compound 87] | 8 mg/L (≈ 9.58 µM) | 0.06 mg/L (≈ 0.0719 µM) | 1 mg/L (≈ 1.2 µM) | 0.12 mg/L (≈ 0.144 µM) | 0.03 mg/L (≈ 0.0359 µM)
CCC1OC(=O)C(C)C(=O)C(C)C(OC2OC(C)CC(N(C)C)C2O)C(C)(OC(=O)NOCc2ccccc2)CC(C)C(=O)C(C)C2NC(=O)OC12C (stereo not shown) [Compound 570] | >16 mg/L | 0.25 mg/L (≈ 0.334 µM) | 4 mg/L (≈ 5.35 µM) | 1 mg/L (≈ 1.34 µM) | 0.03 mg/L (≈ 0.0401 µM)
CCC1OC(=O)C(C)C(=O)C(C)C(OC2OC(C)CC(N(C)C)C2O)C(C)(OC(=O)NOCCc2ccc(-c3ncccn3)cc2)CC(C)C(=O)C(C)C2NC(=O)OC12C (stereo not shown) [Compound 571] | >16 mg/L | 0.12 mg/L (≈ 0.143 µM) | 4 mg/L (≈ 4.76 µM) | 0.5 mg/L (≈ 0.595 µM) | 0.03 mg/L (≈ 0.0357 µM)
CCC1OC(=O)C(C)C(=O)C(C)C(OC2OC(C)CC(N(C)C)C2O)C(C)(OC(=O)NOCc2ccc(-c3ncccn3)cc2)CC(C)C(=O)C(C)C2NC(=O)OC12C (stereo not shown) [Compound 599] | 16 mg/L (≈ 19.4 µM) | 0.25 mg/L (≈ 0.303 µM) | 2 mg/L (≈ 2.42 µM) | 0.5 mg/L (≈ 0.605 µM) | 0.06 mg/L (≈ 0.0726 µM)
CCC1OC(=O)C(C)C(=O)C(C)C(OC2OC(C)CC(N(C)C)C2O)C(C)(OC(=O)NOCC=Cc2ccc(-c3ncccn3)cc2)CC(C)C(=O)C(C)C2NC(=O)OC12C (stereo not shown) [Compound 605] | 16 mg/L (≈ 18.8 µM) | 0.25 mg/L (≈ 0.293 µM) | 4 mg/L (≈ 4.69 µM) | 0.25 mg/L (≈ 0.293 µM) | 0.06 mg/L (≈ 0.0704 µM)
CCC1OC(=O)C(C)C(=O)C(C)C(OC2OC(C)CC(N(C)C)C2O)C(C)(OC(=O)NOCCCc2ccc(-c3ncccn3)cc2)CC(C)C(=O)C(C)C2NC(=O)OC12C (stereo not shown) [Compound 608] | >16 mg/L | 0.5 mg/L (≈ 0.585 µM) | 4 mg/L (≈ 4.68 µM) | 0.5 mg/L (≈ 0.585 µM) | 0.06 mg/L (≈ 0.0703 µM)
CC[C@H]1OC(=O)[C@H](C)C(=O)[C@H](C)[C@@H](O[C@@H]2O[C@H](C)C[C@H](N(C)C)[C@H]2O)[C@](C)(OC(=O)NOCCc2ccccc2)C[C@@H](C)C(=O)[C@H](C)[C@H]2NC(=O)O[C@@]21C [Compound 611] | >16 mg/L | 0.5 mg/L (≈ 0.656 µM) | 8 mg/L (≈ 10.5 µM) | 2 mg/L (≈ 2.62 µM) | 0.12 mg/L (≈ 0.157 µM)
CC[C@H]1OC(=O)[C@H](C)C(=O)[C@H](C)[C@@H](O[C@@H]2O[C@H](C)C[C@H](N(C)C)[C@H]2O)[C@](C)(OC(=O)NOCCCc2ccccc2)C[C@@H](C)C(=O)[C@H](C)[C@H]2NC(=O)O[C@@]21C [Compound 612] | >16 mg/L | 0.25 mg/L (≈ 0.322 µM) | 4 mg/L (≈ 5.16 µM) | 1 mg/L (≈ 1.29 µM) | 0.06 mg/L (≈ 0.0773 µM)
CC[C@H]1OC(=O)[C@H](C)C(=O)[C@H](C)[C@@H](O[C@@H]2O[C@H](C)C[C@H](N(C)C)[C@H]2O)[C@](C)(OC(=O)NNc2ccccc2)C[C@@H](C)C(=O)[C@H](C)[C@H]2NC(=O)O[C@@]21C [Compound 624] | >16 mg/L | 0.5 mg/L (≈ 0.682 µM) | 4 mg/L (≈ 5.46 µM) | 4 mg/L (≈ 5.46 µM) | 0.12 mg/L (≈ 0.164 µM)
CC[C@H]1OC(=O)[C@H](C)C(=O)[C@H](C)[C@@H](O[C@@H]2O[C@H](C)C[C@H](N(C)C)[C@H]2O)[C@](C)(OC(=O)NNCc2ccccc2)C[C@@H](C)C(=O)[C@H](C)[C@H]2NC(=O)O[C@@]21C [Compound 625] | >16 mg/L | 0.25 mg/L (≈ 0.335 µM) | 4 mg/L (≈ 5.36 µM) | 2 mg/L (≈ 2.68 µM) | 0.03 mg/L (≈ 0.0402 µM)
CC[C@H]1OC(=O)[C@H](C)C(=O)[C@H](C)[C@@H](O[C@@H]2O[C@H](C)C[C@H](N(C)C)[C@H]2O)[C@](C)(OC(=O)NNCCc2ccc(-c3ncccn3)cc2)C[C@@H](C)C(=O)[C@H](C)[C@H]2NC(=O)O[C@@]21C [Compound 626] | >16 mg/L | 0.12 mg/L (≈ 0.143 µM) | 4 mg/L (≈ 4.77 µM) | 0.25 mg/L (≈ 0.298 µM) | 0.03 mg/L (≈ 0.0358 µM)
CC[C@H]1OC(=O)[C@H](C)C(=O)[C@H](C)[C@@H](O[C@@H]2O[C@H](C)C[C@H](N(C)C)[C@H]2O)[C@](C)(OC(=O)NNCc2ccc3ncccc3c2)C[C@@H](C)C(=O)[C@H](C)[C@H]2NC(=O)O[C@@]21C [Compound 661] | >16 mg/L | 0.12 mg/L (≈ 0.15 µM) | 2 mg/L (≈ 2.51 µM) | 0.5 mg/L (≈ 0.627 µM) | 0.03 mg/L (≈ 0.0376 µM)

Source: patent US6825170B2, “6-O-acyl ketolide antibacterials” (Ortho-McNeil Pharmaceutical, Inc., priority 2001, dated 2004)
